Source: US9241487B2, “Pyrimidine derivatives and use thereof as pesticides” (BAYER INTELLECTUAL PROPERTY GMBH, priority 2010, dated 2016)

Columns and labels:
Alternaria solani = assay: Alternaria test (tomato)/protective; assay type: in vivo; settings: 168 h, tomato plants, protective spray, evaluation 7 days after inoculation, read-out: Efficacy (%)
Protocol: Alternaria Test (Tomato)/Protective
(§1) Solvent: 49 parts by weight of N,N-dimethylformamide
(§2) Emulsifier: 1 part by weight of alkylaryl polyglycol ether
To produce a suitable preparation of active compound, 1 part by weight of active compound is mixed with the stated amounts of solvent and emulsifier, and the concentrate is diluted with water to the desired concentration. To test for protective activity, young tomato plants are sprayed with the preparation of active compound at the stated application rate. 1 day after the treatment, the plants are inoculated with a spore suspension of Alternaria solani and then remain at 100% rd. humidity and 22° C. for 24 h. The plants then remain at 96% rd. atmospheric humidity and a temperature of 20° C. Evaluation is carried out 7 days after the inoculation. 0% means an efficacy which corresponds to that of the control, whereas an efficacy of 100% means that no infection is observed.
(§3) In this test, the following compounds according to the invention show, at an active compound concentration of 500 ppm, an efficacy of 70% or more: […]

Septoria tritici = Septoria tritici test (wheat)/protective; assay type: in vivo; settings: Zymoseptoria tritici, 504 h, protective spray, evaluation 21 days after inoculation, read-out: Efficacy (%)
Protocol: Septoria tritici Test (Wheat)/Protective
(§4) Solvent: 49 parts by weight of N,N-dimethylacetamide
as §2
(§5) To produce a suitable preparation of active compound, 1 part by weight of active compound is mixed with the stated amounts of solvent and emulsifier, and the concentrate is diluted with water to the desired concentration. To test for protective activity, young plants are sprayed with the preparation of active compound at the stated application rate. After the spray coating has dried on, the plants are sprayed with a spore suspension of Septoria tritici. The plants remain in an incubation cabin at 20° C. and 100% relative atmospheric humidity for 48 hours. Thereafter, the plants are placed under a translucent hood at 15° C. and 100% relative air humidity for a further 60 hours. The plants are placed in a greenhouse at a temperature of about 15° C. and a relative atmospheric humidity of about 80%. Evaluation follows 21 days after the inoculation. 0% means an efficacy which corresponds to that of the control, whereas an efficacy of 100% means that no infection is observed.
as §3

Sphaerotheca fuliginea = assay: Sphaerotheca test (cucumber)/protective; assay type: in vivo; settings: Podosphaera fuliginea, 168 h, cucumber plants, protective spray, evaluation 7 days after inoculation, read-out: Efficacy (%)
Protocol: Sphaerotheca Test (Cucumber)/Protective
as §1, §2
To produce a suitable preparation of active compound, 1 part by weight of active compound is mixed with the stated amounts of solvent and emulsifier, and the concentrate is diluted with water to the desired concentration. To test for protective activity, young cucumber plants are sprayed with the preparation of active compound at the stated application rate. 1 day after the treatment, the plants are inoculated with a spore suspension of Sphaerotheca fuliginea. The plants are then placed in a greenhouse at 70% relative air humidity and a temperature of 23° C. Evaluation follows 7 days after the inoculation. 0% means an efficacy which corresponds to that of the control, whereas an efficacy of 100% means that no infection is observed. In this test, the following compounds according to the invention show, at an active compound concentration of 500 ppm, an efficacy of 70% or more: […]

Leptosphaeria nodorum = Leptosphaeria nodorum test (wheat)/protective; assay type: in vivo; settings: Parastagonospora nodorum, wheat plants, protective spray, evaluation 7-9 days after inoculation, read-out: Efficacy (%)
Protocol: Leptosphaeria nodorum Test (Wheat)/Protective
as §1, §2
To produce a suitable preparation of active compound, 1 part by weight of active compound is mixed with the stated amounts of solvent and emulsifier, and the concentrate is diluted with water to the desired concentration. To test for protective activity, young wheat plants are sprayed with the preparation of active compound at the stated application rate. 1 day after the treatment, the plants are inoculated with an aqueous spore suspension of Leptosphaeria nodorum and then remain at 100% relative atmospheric humidity and 22° C. for 48 h. The plants are then placed in a greenhouse at 90% relative atmospheric humidity and a temperature of 22° C. Evaluation is carried out 7-9 days after the inoculation. 0% means an efficacy which corresponds to that of the control, whereas an efficacy of 100% means that no infection is observed. In this test, the following compounds according to the invention show, at an active compound concentration of 500 ppm, an efficacy of 70% or more: […]

Puccinia triticina = Puccinia triticina test (wheat)/protective; assay type: in vivo; settings: 192 h, protective spray, evaluation 8 days after inoculation, read-out: Efficacy (%)
Protocol: Puccinia triticina Test (Wheat)/Protective
as §4, §2
as §5, with “sprayed with spores with a spore” for “sprayed with a spore”, “suspension of Puccinia triticina. The plants” for “suspension of Septoria tritici. The plants”, “48 hours. The plants” for “48 hours. Thereafter, the plants are placed under a translucent hood at 15° C. and 100% relative air humidity for a further 60 hours. The plants”, “of about 20° C. and” for “of about 15° C. and”, “Evaluation follows 8 days after” for “Evaluation follows 21 days after”
as §3

[1] = log P by HPLC on reversed-phase columns (C 18), EEC directive 79/831 Annex V.A8; assay type: physicochemical; settings: reversed-phase HPLC columns (C 18); method [a]: LC-MS, acidic range pH 2.7, 0.1% aqueous formic acid/acetonitrile, gradient 10% to 95% acetonitrile
Protocol: The log P values were measured according to EEC directive 79/831 Annex V.A8 by HPLC (High Performance Liquid Chromatography) on reversed-phase columns (C 18), using the methods below: [a] The LC-MS determination in the acidic range is carried out at pH 2.7 with 0.1% aqueous formic acid and acetonitrile (contains 0.1% formic acid) as mobile phases; linear gradient from 10% acetonitrile to 95% acetonitrile.

[2] = system: Blumeria graminis fsp. hordei; assay: Blumeria graminis test (barley)/protective; assay type: in vivo; settings: 168 h, protective spray, evaluation 7 days after inoculation, read-out: Efficacy (%)
Protocol: Blumeria graminis Test (Barley)/Protective
as §4, §2
To produce a suitable preparation of active compound, 1 part by weight of active compound is mixed with the stated amounts of solvent and emulsifier, and the concentrate is diluted with water to the desired concentration. To test for protective activity, young plants are sprayed with the preparation of active compound at the stated application rate. After the spray coating has dried on, the plants are dusted with spores of Blumeria graminis fsp. hordei. The plants are placed in a greenhouse at a temperature of about 18° C. and a relative air humidity of about 80% to promote the development of mildew pustules. Evaluation follows 7 days after the inoculation. 0% means an efficacy which corresponds to that of the control, whereas an efficacy of 100% means that no infection is observed.
as §3

Uromyces appendiculatus = assay: Uromyces test (bean)/protective; assay type: in vivo; settings: 240 h, protective spray, evaluation 10 days after inoculation, read-out: Efficacy (%)
Protocol: Uromyces Test (Bean)/Protective
(§6) Solvents: 24.5 parts by weight of acetone
(§7) • 24.5 parts by weight of dimethylacetamide Emulsifier: 1 part by weight of alkylaryl polyglycol ether
To produce a suitable preparation of active compound, 1 part by weight of active compound is mixed with the stated amounts of solvent and emulsifier, and the concentrate is diluted with water to the desired concentration. To test for protective activity, young plants are sprayed with the preparation of active compound at the stated application rate. After the spray coating has dried on, the plants are inoculated with an aqueous spore suspension of the bean rust pathogen Uromyces appendiculatus and then remain in an incubation cabin at about 20° C. and 100% relative atmospheric humidity for 1 day. The plants are then placed in the greenhouse at about 21° C. and a relative atmospheric humidity of about 90%. Evaluation follows 10 days after the inoculation. 0% means an efficacy which corresponds to that of the control, whereas an efficacy of 100% means that no infection is observed.
(§8) In this test, the following compounds according to the invention show, at an active compound concentration of 100 ppm, an efficacy of 70% or more: […]

Venturia inaequalis = assay: Venturia test (apple)/protective; assay type: in vivo; settings: 240 h, protective spray, evaluation 10 days after inoculation, read-out: Efficacy (%)
Protocol: Venturia Test (Apple)/Protective
as §6, §7
To produce a suitable preparation of active compound, 1 part by weight of active compound is mixed with the stated amounts of solvent and emulsifier, and the concentrate is diluted with water to the desired concentration. To test for protective activity, young plants are sprayed with the preparation of active compound at the stated application rate. After the spray coating has dried on, the plants are inoculated with an aqueous conidia suspension of the apple scab pathogen Venturia inaequalis and then remain in an incubation cabin at approx. 20° C. and 100% relative air humidity for 1 day. The plants are then placed in the greenhouse at about 21° C. and a relative atmospheric humidity of about 90%. Evaluation follows 10 days after the inoculation. 0% means an efficacy which corresponds to that of the control, whereas an efficacy of 100% means that no infection is observed.
as §8

SMILES	pest or weed control at 500 ppm (Alternaria solani) [%]	pest or weed control at 500 ppm (Septoria tritici) [%]	pest or weed control at 500 ppm (Sphaerotheca fuliginea) [%]	pest or weed control at 500 ppm (Leptosphaeria nodorum) [%]	pest or weed control at 500 ppm (Puccinia triticina) [%]	chromatographic logP [1]	pest or weed control at 500 ppm [2] [%]	pest or weed control at 100 ppm (Uromyces appendiculatus) [%]	pest or weed control at 100 ppm (Venturia inaequalis) [%]
CC1(C(O)(COc2ccc(SC(F)(F)F)cc2)c2cncnc2)CC1 (stereo not drawn) [Compound 19]	90	86	95	95	100	3.3	100		
Cc1cc(OC(F)(F)F)ccc1OCC(O)(c1cncnc1)C(C)(C)C (stereo not drawn) [Compound 30]	90	71	100	89	100	3.59	100	100	98
CC(C)(C)C(O)(COc1ccc(SC(F)(F)F)c(Cl)c1)c1cncnc1 (stereo not drawn) [Compound 31]	95		100	95		3.76		100	99
CC(C)(C)C(O)(COc1ccc(S(=O)(=O)C(F)(F)F)cc1)c1cncnc1 (stereo not drawn) [Compound 33]	89		95	94	100	2.82	100	100	99
